How the values were obtained:
Format in all cases: cell-based
[1] = system: PANC-1, pancreas ductal carcinoma; assay: CellTiter-Glo cell viability assay, cancer cell cytotoxicity/anti-proliferation panel (Chempartner); details: for IC50: Homo sapiens, PANC-1, 72 h, read-out: IC50 (absolute IC50)
Procedure: (§1) In this study, the biological activity of certain compounds of the present invention on cancer cell cytotoxicity/anti-proliferation panel was tested using the CellTiter-Glo® cell viability assay. The compounds were dissolved in DMSO to make 10 mM solution.
(§2) The cell lines tested were all selected from the Chempartner's cell collection and included: Caco-2 ATCC colon adenocarcinoma; TE-6 RIKEN esophagus, carcinoma; PC-3 ATCC prostate adenocarcinoma; T47D, breast ductal carcinoma; U251, brain human glioma; A549, lung carcinoma; OMP-2, multiple myeloma; SK-HEP-1, liver adenocarcinoma; PANC-1, pancreas ductal carcinoma; AsPC-1, pancreas, ductal carcinoma; and U-87 MG, brain glioblastoma.
(§3) For the assays described herein, absolute inhibition of cells growth (%) and absolute IC50 (Abs IC50; […]) were used to derive a value that can be used to compare results within and across runs in the same assay, as well as between different assays.
(§4) • a. Prepare complete medium: Add FBS and appropriate additives according to the information sheet provided by the vendor. Mix gently. • b. Check the cell name and complete medium and passage number marked on the flask. For adherent cell lines, refer to c to k. For suspension cell lines, refer to g to k. • c. Remove and discard culture medium using a vacuum pump. • d. Briefly rinse the cell layer with 0.25% (w/v) trypsin-0.038% (w/v) EDTA solution to remove all traces of serum that contains trypsin inhibitor. • e. Add 3.0 ml of trypsin-EDTA solution to flask and observe cells under an inverted microscope until cell layer is dispersed. • f. Add 8.0 ml of complete growth medium and aspirate cells by gently pipetting. • g. Transfer the cell suspension to a centrifuge tube and centrifuge at 800-1000 rpm for 3-5 minutes. • h. Discard the supernatant using a vacuum pump. • i. Add appropriate volume of complete medium. Suspend the cell pellet by gently pipetting. • j. Count the cell numbers with Vi-cell XR and adjust cells to appropriate density. • k. Add 100 μL of cell suspension to 96-well opaque-walled clear bottom plates according to the planned plate layout and place the plates in the CO2 incubator overnight. • l. Plate layout:
(§5) • Plate preparation of testing articles. 10 mM stock solution of each one of the compounds (provided as powder) was prepared in DMSO. […] 0.5 μL of each of the diluted compounds was transferred to the wells containing 100 μL of the culture medium. The total dilution was 200 fold. Cells were incubated with the compounds for 72 hours at 5% CO2, 37° C.
(§6) • Thaw the CellTiter-Glo buffer and equilibrate to room temperature prior to use. • Equilibrate the lyophilized CellTiter-Glo substrate to room temperature prior to use. • Transfer the appropriate volume of CellTiter-Glo buffer into the amber bottle containing CellTiter-Glo substrate to reconstitute the lyophilized enzyme/substrate mixture. This forms the CellTiter-Glo reagent. • Mix by gently vortexing, swirling or by inverting the contents to obtain a homogeneous solution. The CellTiter-Glo substrate should go into solution easily in less than one minute.
(§7) • Observe the cell morphology under an inverted microscope after corresponding treatment. • Equilibrate the plate and its contents to room temperature for approximately 30 minutes. • Add 100 μL of CellTiter-Glo reagent to the assay plate by Multidrop Combi instrument. • Mix contents for 10 minutes on an orbital shaker to induce cell lysis. • Allow the plate to incubate at room temperature for 10 minutes to stabilize luminescent signal. • Paste the clear bottom with white back seal and record luminescence with Enspire. The settings should be: Luminescence, measurement time 0.1 ms.
(§8) Inhibition (%) and absolute IC50 (μM) of each compound was calculated with XLFit curve fitting software that is compatible to Activity Base.

[2] = system: U-87 MG, brain glioblastoma; assay: as above; details: for IC50: Homo sapiens, 72 h, read-out: IC50 (absolute IC50)
Procedure: as §1, §2, §3, §4, §5, §6, §7, §8

[3] = system: SK-HEP-1, liver adenocarcinoma; assay: as above; details: Homo sapiens, SK-HEP1, 72 h; read-out: IC50 (absolute IC50)
Procedure: as §1, §2, §3, §4, §5, §6, §7, §8

[4] = system: human peripheral blood mononuclear cells (PBMCs); assay: Cell proliferation of LPS-challenged PBMCs by CellTiter-Glo (CTG); details: human PBMCs, 72 h (LPS control 84.50)
Excerpt: (§9) This study was aimed to test the effect of 12 compounds (THCA, Ia1, Ia5, Ia6, Ia9, Ia11, Ia15, Ia17, Ia24, Ia25, Ia27, and Ia28) on human peripheral blood mononuclear cells (PBMCs) challenged by lipopolysaccharide (LPS) through monitoring multiple inflammatory endpoints.
(§10) Blood samples were collected from healthy volunteers according to protocols that have been reviewed and approved by the Chempartner Institutional Ethic Committee (IEC) upon signing an Informed Consent Form (ICF).
(§11) Fresh PBMCs were isolated and seeded into 96-well plate, and diluted solutions of the tested compounds and 0.1 μg/mL LPS were then added (in triplicates). To serve as control, 3 wells with PBMCs only, 3 wells with 0.1 μg/mL LPS, and 2 wells with 1 μg/mL dexamethasone (Dex) and 0.1 μg/mL LPS were included. After 72 hours incubation, supernatant was collected for tumor necrosis factor-α (TNF-α) measurement by enzyme-linked immunosorbent assay (ELISA), and cell pellets were harvested for cell proliferation measurement by CellTiter-Glo® Luminescent Cell Viability Assay (CTG).
(§12) The human blood sample from an individual donor was diluted by the same volume of sterile phosphate buffered solution (PBS) and mixed sufficiently by gentle shake. 15 mL Lymphoprep™ medium was transferred into a new 50 mL centrifuge tube, and the diluted blood sample (30 mL) was then carefully added onto the surface of the medium, which consequently contained Ficoll 400 and blood in a volume ratio of 1:2. Four interfaces were observed after centrifugation, which are, from top to bottom, layers of plasma, mononuclear cells, Ficoll medium, and red blood cells (RBCs). Plasma was absorbed, and mononuclear cells were then transferred into another new sterile centrifuge tube. Then, sterile PBS buffer was added into the collected PBMCs for washing, at a volume ratio of 3:1. PBMCs were washed with 5-10 mL PBS twice before cell counting with cytometer. Cells were centrifuged at 350×g, for 10 min, at 20° C. with the acceleration (5) and deceleration (5) settings during the centrifugation. The cells were resuspended with RPMI 1640 complete medium (containing 10% FBS) for assay, and the density was adjusted with RPMI 1640 complete medium to the final concentration of 2E6 cells/mL. Cells suspension of the PBMCs (100 μL/well) were seeded into 96-well plate (#3903).
(§13) Diluted solutions of the tested compounds were prepared with RPMI 1640 complete medium according to the following layout. Compounds were prepared at 5-fold of concentration (50 μM), and then were diluted to the working concentration of 10 μM with RPMI 1640 complete medium and made 10-fold serially dilution (2 points). The diluted compounds (50 μL/well) were added to the indicated wells, and the plate was incubated at 37° C., 5% CO2, for 72 h.
(§14) LPS (0.1 μg/mL, 100 μL) was added into each well. Dex (1 μg/mL) was included as a positive control. Plate was incubated at 37° C., 5% CO2 for 72 h. Supernatant was collected to measure TNF-α by ELISA. Cell proliferation was detected by CTG.

[5] = system: PANC-1 (pancreatic carcinoma); assay: XTT cytotoxicity assay (Pharma Seed); details: Homo sapiens, 48 hours, 20, 10, 5, 1 μM, assay medium 1% FBS
Procedure: In this study, the cytotoxicity of several compounds of the present invention on lung and pancreatic cancer cell was evaluated.
PANC-1 (pancreatic carcinoma) culture medium: DMEM (High Glucose), supplemented with 10% FBS (heat inactivated), 2 mM L-glutamine, and 1% of Pen/Strep/Amp solution. PANC-1 assay medium: DMEM (High Glucose), supplemented with 1% FBS (heat inactivated), 2 mM L-glutamine, and 1% of Pen/Strep/Amp solution.
Each of the tested compounds was dissolved in DMSO to reach a stock concentration of 20 mM (and stored at −15° C.-−25° C. until use. Compound Ia28 (MW 484 g/mol, 3.05 mg total) was dissolved in 0.315 mL; compound Ia9 (MW 484 g/mol, 2.33 mg total) was dissolved in 0.241 mL; and compound Ia6 (MW 428.3 g/mol, 2.25 mg total) was dissolved in 0.262 mL.
On the day of incubation with the cells, each compound was diluted in DMSO to reach 2 mM, 1 mM, 0.5 mM, 0.1 mM stock concentrations (1:10, 1:20, 1:40 and 1:200), and each of these stocks was further diluted in assay medium 1:100 for final concentration of 20 μM, 10 μM, 5 μM, and 1 μM.
Part 1—cell number calibration. PANC-1 and A549 cells were each plated in a 96 well plate, in their culture medium, at various cell concentrations per well, in triplicates, and were allowed to attach for 24 hours. Thereafter, culture medium was discarded, assay medium was added, and the cells were incubated for additional 72 hours. Finally, assay medium was discarded, and fresh culture medium was added to the cells along with 50 μl XTT reagent. The OD was measured every two hours for 6 hours (three times).
The highest cells number/well were chosen for part 2 as follows: PANC-1 at 7,500 cells per well, A549 at 5000 cells per well.
Part 2—cells incubation with tested compounds. PANC-1 and A549 cells were plated in a 96 well plate, in their culture medium, at the optimal cell concentration according to the results from the previous section and were allowed to attach for 24 hours. Thereafter, the culture medium was discarded, and fresh assay medium was added to the cells, supplemented with elevating compound concentrations. Triton 0.1% was used as positive control for cell death. The cells were incubated for another 48 hours (TBD upon microscopic observation). Finally, fresh culture medium was added to the cells along with 50 μl XTT reagent. The OD was measured at the optimal time point according to the results in the previous section.

[6] = system: TNF-α; assay: LPS induced cytokine release assay, TNF-α by ELISA in PBMCs; details: human PBMCs; for TNF-α: 72 h, ELISA (LPS control 18.16)
Excerpt: as §9, §10, §11, §12, §13, §14

[7] = system: T47D, breast ductal carcinoma; assay: CellTiter-Glo cell viability assay, cancer cell cytotoxicity/anti-proliferation panel (Chempartner); details: T47D
Procedure: as §1, §2, §3, §4, §5, §6, §7, §8

[8] = system: A549, lung carcinoma; assay: as above
Procedure: as §1, §2, §3, §4, §5, §6, §7, §8

[9] = system: AsPC-1, pancreas, ductal carcinoma; assay: as above
Procedure: as §1, §2, §3, §4, §5, §6, §7, §8

[10] = 72 hours, compounds 10 μM starting, STS 2 μM starting, 10-pt, 3-fold dilution

For CN[C@@H]1C[C@H]2O[C@@](C)([C@@H]1OC)n1c3ccccc3c3c4c(c5c6ccccc6n2c5c31)C(=O)NC4 [STS, Staurosporine, reference compound], the IC50 [1] was 0.04 µM, the IC50 [2] was 0.082 µM and the IC50 [3] was 0.07 µM.
C=C(C)[C@@H]1CCC(C)=C[C@H]1c1c(O)cc(CCCCC)c(C(=O)NCCN2CCCC2)c1O [Ia27, (1′R,2′R)-2,6-dihydroxy-5′-methyl-4-pentyl-2′-(prop-1-en-2-yl)-N-(2-(pyrrolidin-1-yl)ethyl)-1′,2′,3′,4′-tetrahydro-[1,1′-biphenyl]-3-carboxamide] was tested, and the CTG signal ([4]; compound 1 μM + 0.1 μg/mL LPS) was 81.90 10^4, the CTG signal ([4]; compound 10 μM + 0.1 μg/mL LPS) was 78.67 10^4 and the IC50 [5] was 7.5 µM. For the same compound, the TNF-α ([6]; compound 1 μM + 0.1 μg/mL LPS) was 36.23 pg/mL, the TNF-α ([6]; compound 10 μM + 0.1 μg/mL LPS) was 22.09 pg/mL and the “change of TNF-α expression in LPS-treated cells” value ([6]; tested concentrations of 1 M and 10 M (so in the source)) was “decreased TNF-α expression”.
CCCCCc1cc2c(c(O)c1C(=O)NCCN1CCCC1)[C@@H]1C=C(C)CC[C@H]1C(C)(C)O2 [Ia32, (6aR,0aR)-1-hydroxy-6,6,9-trimethyl-3-pentyl-N-(2-(pyrrolidin-1-yl)ethyl)-6a,7,8,10a-tetrahydro-6H-benzo[c]chromene-2-carboxamide] gave an IC50 [5] of 3.9 µM.
CCCCCc1cc2c(c(O)c1C(=O)N/N=C/c1ncccn1)[C@@H]1C=C(C)CC[C@H]1C(C)(C)O2 [Ia16, (6aR,10aR)-1-hydroxy-6,6,9-trimethyl-3-pentyl-N′-((E)-pyrimidin-2-ylmethylene)-6a,7,8,10a-tetrahydro-6H-benzo[c]chromene-2-carbohydrazide] showed an IC50 ([7]; Homo sapiens, 72 h, read-out: IC50 (absolute IC50)) of over 10 µM, an Inhibition [7, 10] of 47.20% and an Inhibition ([8]; A549, 72 hours, compounds 10 μM starting, STS 2 μM starting, 10-pt, 3-fold dilution) of 70.01%. It also gave an IC50 ([8]; Homo sapiens, A549, 72 h, read-out: IC50 (absolute IC50)) of 5.53 µM, an IC50 [1] of 1.88 µM and an Inhibition ([1]; PANC-1, 72 hours, compounds 10 μM starting, STS 2 μM starting, 10-pt, 3-fold dilution) of 85.71%. It also gave an Inhibition [2, 10] of 73.80%, an IC50 [2] of 3.37 µM and an Inhibition ([9]; AsPC-1, 72 hours, compounds 10 μM starting, STS 2 μM starting, 10-pt, 3-fold dilution) of 67.70%. The IC50 ([9]; Homo sapiens, ASPC1, 72 h, read-out: IC50 (absolute IC50)) was 4.34 µM and the IC50 [5] was 7 µM.
In the case of CCCCCc1cc2c(c(O)c1C(=O)NCCn1ccnc1)[C@@H]1C=C(C)CC[C@H]1C(C)(C)O2 [Ia33, (6aR,0aR)—N-(2-(1H-imidazol-1-yl)ethyl)-1-hydroxy-6,6,9-trimethyl-3-pentyl-6a,7,8,10a-tetrahydro-6H-benzo[c]chromene-2-carboxamide], the IC50 [5] is reported as 6.7 µM.
For CCCCCc1cc2c(c(O)c1C(=O)NCCNc1ncccn1)[C@@H]1C=C(C)CC[C@H]1C(C)(C)O2 [Ia31, (6aR,0aR)-1-hydroxy-6,6,9-trimethyl-3-pentyl-N-(2-(pyrimidin-2-ylamino)ethyl)-6a,7,8,10a-tetrahydro-6H-benzo[c]chromene-2-carboxamide], the IC50 [5] was 8.5 µM.
